Columns and labels:
Assay type in all cases: cell-based
[1] = biological target: T1, human EGFR E746-A750 deletion and T790M Mutation (Homo sapiens, UniProt P00533, DEL746-750/T790M); assay: Ba/F3-EGFR-Del/T790M cell anti-proliferative assay (CellTiter 96 MTS, 72 h); settings: Ba/F3-EGFR-Del/T790M cells
T1 construct: expressed in transfected cells; host or cells: Ba/F3 (murine pro-B) cells transduced with lentivirus from pLVX-IRES puro
Outline: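 Compound exposure: 72 h, 37 °C, 4-fold series topping at 10,000 nM. Target cells are Ba/F3 transduced with EGFR exon 19 deletion plus T790M, selected by puromycin and IL-3 withdrawal. Viable cell number inferred from MTS metabolic conversion, A490 read 2 h after reagent addition.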

[2] = biological target: T2, human EGFR exon 20 insertion NPG (H773_V774insNPG) (Homo sapiens, UniProt P00533, INS772GNP); assay: Ba/F3-EGFR-Exon20-NPG cell anti-proliferative assay (CellTiter 96 MTS, 72 h); settings: Ba/F3-EGFR-Exon20-NPG cells
T2 construct: expressed in transfected cells; host or cells: Ba/F3 (murine pro-B) cells transduced with lentivirus from pLVX-IRES puro
Outline: (§1)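 Viable-cell readout used absorbance at 490 nm of MTS-derived formazan, 2 h after reagent addition, following 72 h compound treatment at 37 °C, 5% CO2. Cells: puromycin-selected, IL-3-depleted Ba/F3 expressing EGFR exon 20 ASV or NPG; dosing 4-fold series from 10,000 nM.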

[3] = biological target: T3, Her2 exon 20 YVMA insertion (A775_G776ins YVMA) (Homo sapiens, UniProt P04626, INS775YVMA); assay: Ba/F3-Her2 Exon20 YVMA cell anti-proliferative assay (CellTiter 96 MTS, 72 h); settings: Ba/F3-Her2 Exon20 YVMA cells
T3 construct: expressed in transfected cells; host or cells: Ba/F3 (murine pro-B) cells transduced with lentivirus from pLVX-IRES puro
Outline: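 Anti-proliferation: compound series (top 10,000 nM, 4-fold steps) was applied to Ba/F3-Her2 Exon20 YVMA cells grown without IL-3 for 72 h. Viability was read colorimetrically (CellTiter 96 Aqueous One, A490, 2 h reagent incubation).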

[4] = biological target: T4, human EGFR exon 20 insertion ASV (V769_D770insASV) (Homo sapiens, UniProt P00533, INS769ASV); assay: Ba/F3-EGFR-Exon20-ASV cell anti-proliferative assay (CellTiter 96 MTS, 72 h); settings: Ba/F3-EGFR-Exon20-ASV cells
T4 construct: expressed in transfected cells; host or cells: Ba/F3 (murine pro-B) cells transduced with lentivirus from pLVX-IRES puro
Outline: as §1

T3 sequence (P04626 with tags, fused parts or gaps INS775YVMA): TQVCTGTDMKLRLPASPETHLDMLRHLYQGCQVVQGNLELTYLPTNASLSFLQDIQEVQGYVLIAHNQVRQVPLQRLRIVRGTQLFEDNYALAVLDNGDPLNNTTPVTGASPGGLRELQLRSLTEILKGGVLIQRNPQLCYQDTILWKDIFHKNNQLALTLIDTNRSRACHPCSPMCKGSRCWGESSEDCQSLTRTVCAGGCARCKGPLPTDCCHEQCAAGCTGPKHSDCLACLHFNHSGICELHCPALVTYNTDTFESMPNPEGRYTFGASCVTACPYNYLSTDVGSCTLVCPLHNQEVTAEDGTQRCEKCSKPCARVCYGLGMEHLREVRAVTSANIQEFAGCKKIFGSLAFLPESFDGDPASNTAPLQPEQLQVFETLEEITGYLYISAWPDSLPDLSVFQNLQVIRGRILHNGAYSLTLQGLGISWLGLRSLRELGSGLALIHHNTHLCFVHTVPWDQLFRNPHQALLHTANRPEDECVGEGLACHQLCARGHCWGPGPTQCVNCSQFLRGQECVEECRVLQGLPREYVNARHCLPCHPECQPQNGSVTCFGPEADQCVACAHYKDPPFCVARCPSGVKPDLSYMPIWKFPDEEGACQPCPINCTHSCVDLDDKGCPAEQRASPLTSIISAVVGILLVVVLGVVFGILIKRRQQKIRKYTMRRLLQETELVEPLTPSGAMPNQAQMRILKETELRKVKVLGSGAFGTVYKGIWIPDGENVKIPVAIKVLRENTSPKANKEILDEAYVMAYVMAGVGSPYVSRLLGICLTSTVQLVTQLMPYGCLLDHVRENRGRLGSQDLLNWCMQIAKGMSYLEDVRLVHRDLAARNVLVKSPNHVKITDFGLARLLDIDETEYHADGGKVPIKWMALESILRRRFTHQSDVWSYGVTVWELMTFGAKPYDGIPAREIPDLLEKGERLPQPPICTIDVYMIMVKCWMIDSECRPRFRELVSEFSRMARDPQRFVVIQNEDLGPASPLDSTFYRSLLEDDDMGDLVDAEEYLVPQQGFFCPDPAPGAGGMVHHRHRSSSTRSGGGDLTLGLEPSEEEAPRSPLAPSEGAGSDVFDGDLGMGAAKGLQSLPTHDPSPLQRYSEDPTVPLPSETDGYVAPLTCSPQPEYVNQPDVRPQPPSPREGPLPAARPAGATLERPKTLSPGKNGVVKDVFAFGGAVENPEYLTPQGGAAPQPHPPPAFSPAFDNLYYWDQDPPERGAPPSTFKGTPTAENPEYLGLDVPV
T1 sequence (P00533 with tags, fused parts or gaps DEL746-750/T790M): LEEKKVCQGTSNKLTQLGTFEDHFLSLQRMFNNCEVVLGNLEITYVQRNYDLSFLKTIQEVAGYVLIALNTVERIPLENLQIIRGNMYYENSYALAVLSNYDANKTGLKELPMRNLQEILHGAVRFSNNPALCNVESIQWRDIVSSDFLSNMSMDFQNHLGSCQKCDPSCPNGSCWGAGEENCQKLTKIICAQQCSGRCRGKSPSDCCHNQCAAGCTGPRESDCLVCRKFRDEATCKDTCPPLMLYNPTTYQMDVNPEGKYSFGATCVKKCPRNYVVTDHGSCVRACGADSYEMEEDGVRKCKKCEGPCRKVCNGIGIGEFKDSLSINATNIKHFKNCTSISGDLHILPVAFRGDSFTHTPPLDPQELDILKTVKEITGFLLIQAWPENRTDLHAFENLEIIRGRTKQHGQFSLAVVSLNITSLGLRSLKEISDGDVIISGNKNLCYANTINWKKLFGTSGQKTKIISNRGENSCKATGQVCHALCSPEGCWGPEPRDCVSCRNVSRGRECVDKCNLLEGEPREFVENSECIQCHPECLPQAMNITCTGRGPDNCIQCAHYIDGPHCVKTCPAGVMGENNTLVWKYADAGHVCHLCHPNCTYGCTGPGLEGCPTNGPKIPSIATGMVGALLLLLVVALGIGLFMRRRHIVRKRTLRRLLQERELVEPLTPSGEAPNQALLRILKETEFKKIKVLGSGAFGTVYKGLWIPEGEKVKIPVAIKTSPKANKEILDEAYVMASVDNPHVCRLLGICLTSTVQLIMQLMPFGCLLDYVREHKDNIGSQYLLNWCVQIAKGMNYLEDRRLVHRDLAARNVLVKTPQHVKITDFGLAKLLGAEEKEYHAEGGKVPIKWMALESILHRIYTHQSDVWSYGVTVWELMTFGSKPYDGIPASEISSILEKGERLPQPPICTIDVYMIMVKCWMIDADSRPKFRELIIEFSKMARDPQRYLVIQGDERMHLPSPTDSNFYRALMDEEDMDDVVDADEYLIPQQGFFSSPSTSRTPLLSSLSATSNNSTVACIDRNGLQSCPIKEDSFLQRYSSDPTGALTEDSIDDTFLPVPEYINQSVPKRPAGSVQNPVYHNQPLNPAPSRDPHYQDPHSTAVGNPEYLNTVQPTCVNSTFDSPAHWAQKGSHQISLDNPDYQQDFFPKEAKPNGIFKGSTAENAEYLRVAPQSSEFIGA
T2 sequence (P00533 with tags, fused parts or gaps INS772GNP): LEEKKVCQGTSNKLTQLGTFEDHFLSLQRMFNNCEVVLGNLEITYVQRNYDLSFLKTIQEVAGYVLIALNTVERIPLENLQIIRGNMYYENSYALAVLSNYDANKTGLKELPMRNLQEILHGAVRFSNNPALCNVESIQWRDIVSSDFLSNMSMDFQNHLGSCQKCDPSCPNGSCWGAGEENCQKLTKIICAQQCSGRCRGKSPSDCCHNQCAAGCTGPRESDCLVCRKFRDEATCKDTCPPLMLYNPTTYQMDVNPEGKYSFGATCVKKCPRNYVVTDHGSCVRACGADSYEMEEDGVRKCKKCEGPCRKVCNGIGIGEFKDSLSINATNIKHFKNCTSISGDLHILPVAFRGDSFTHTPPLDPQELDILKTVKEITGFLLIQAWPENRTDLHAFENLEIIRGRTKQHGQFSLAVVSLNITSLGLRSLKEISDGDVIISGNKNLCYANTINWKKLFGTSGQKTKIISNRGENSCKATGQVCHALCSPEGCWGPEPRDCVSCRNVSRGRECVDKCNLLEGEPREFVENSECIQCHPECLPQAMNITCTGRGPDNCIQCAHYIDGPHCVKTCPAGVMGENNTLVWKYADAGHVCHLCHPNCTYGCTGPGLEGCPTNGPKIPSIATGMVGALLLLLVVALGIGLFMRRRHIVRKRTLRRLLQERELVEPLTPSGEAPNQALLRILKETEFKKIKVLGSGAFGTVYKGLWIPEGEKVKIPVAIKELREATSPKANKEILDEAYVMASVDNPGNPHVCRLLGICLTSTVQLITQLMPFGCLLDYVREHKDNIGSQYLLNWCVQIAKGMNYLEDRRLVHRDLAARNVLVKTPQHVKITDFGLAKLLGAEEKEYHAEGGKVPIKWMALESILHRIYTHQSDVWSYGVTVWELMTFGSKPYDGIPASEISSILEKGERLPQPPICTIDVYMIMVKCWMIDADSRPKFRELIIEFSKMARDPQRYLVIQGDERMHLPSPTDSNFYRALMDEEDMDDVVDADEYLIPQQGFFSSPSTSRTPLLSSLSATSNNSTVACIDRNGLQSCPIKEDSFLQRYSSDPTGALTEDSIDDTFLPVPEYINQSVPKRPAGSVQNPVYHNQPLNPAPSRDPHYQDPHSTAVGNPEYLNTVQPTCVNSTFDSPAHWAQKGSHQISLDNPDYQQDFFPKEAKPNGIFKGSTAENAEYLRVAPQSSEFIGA
T4 sequence (P00533 with tags, fused parts or gaps INS769ASV): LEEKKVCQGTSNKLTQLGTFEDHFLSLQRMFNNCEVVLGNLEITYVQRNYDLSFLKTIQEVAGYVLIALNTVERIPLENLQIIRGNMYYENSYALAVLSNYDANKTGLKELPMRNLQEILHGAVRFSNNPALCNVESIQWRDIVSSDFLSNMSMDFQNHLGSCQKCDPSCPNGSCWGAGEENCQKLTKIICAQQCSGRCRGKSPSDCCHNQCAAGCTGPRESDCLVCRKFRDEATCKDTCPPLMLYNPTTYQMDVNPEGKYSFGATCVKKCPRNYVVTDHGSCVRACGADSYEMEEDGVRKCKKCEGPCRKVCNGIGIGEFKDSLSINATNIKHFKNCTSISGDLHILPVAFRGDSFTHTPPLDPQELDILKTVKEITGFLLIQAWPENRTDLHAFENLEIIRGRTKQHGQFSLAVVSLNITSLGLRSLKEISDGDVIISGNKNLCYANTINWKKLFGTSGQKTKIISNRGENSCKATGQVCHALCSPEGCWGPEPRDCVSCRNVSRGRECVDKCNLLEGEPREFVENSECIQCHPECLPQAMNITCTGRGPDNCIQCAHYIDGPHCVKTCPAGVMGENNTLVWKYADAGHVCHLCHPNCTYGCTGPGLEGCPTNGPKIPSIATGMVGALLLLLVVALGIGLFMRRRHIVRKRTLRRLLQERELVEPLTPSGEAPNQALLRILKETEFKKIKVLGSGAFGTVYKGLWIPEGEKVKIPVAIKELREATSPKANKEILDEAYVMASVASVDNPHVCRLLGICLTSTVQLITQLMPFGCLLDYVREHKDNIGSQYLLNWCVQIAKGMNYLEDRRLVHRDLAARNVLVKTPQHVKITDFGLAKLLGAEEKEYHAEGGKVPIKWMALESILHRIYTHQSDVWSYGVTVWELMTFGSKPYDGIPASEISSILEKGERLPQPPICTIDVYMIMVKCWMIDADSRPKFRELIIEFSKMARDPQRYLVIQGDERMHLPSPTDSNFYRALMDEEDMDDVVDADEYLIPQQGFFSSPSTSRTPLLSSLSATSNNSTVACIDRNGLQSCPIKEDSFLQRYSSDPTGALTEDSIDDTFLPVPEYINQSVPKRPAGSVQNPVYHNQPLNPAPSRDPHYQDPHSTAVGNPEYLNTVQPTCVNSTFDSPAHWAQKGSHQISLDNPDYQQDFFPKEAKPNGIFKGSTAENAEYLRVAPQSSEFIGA

SMILES | IC50 [2] [nM] | IC50 [3] [nM] | IC50 [4] [nM] | EGFR exon 19 deletion and exon 20 T790M mutation IC50 [1]
C=CC(=O)Nc1cc(Nc2ncc(C#N)c(-c3cn4c5c(cccc35)N(C)C(=O)C4)n2)c(OC)cc1N1CC[C@@H](N(C)C)C1 [Example 55, (R)-N-(5-((5-cyano-4-(1-methyl-2-oxo-2,3-dihydro-1H-pyrrolo[1,2,3-de]quinoxalin-6-yl)pyrimidin-2-yl)amino)-2-(3-(dimethylamino)pyrrolidin-1-yl)-4-methoxyphenyl)acrylamide] | < 100 | 100 to 500 | 100 to 500 | A (IC50 value for the indicated mutant below about 100 nM)
[2H]C([2H])([2H])N(CCN(C)c1cc(OC)c(Nc2ncc(Cl)c(-c3cn4c5c(cccc35)OCC4)n2)cc1NC(=O)C=C)C([2H])([2H])[2H] [Example 7, N-(2-((2-(bis(methyl-d3)amino)ethyl)(methyl)amino)-5-((5-chloro-4-(2,3-dihydro-[1,4]oxazino[2,3,4-hi]indol-6-yl)pyrimidin-2-yl)amino)-4-methoxyphenyl)acrylamide] | < 100 | < 100 | < 100 | A (IC50 value for the indicated mutant below about 100 nM)
C=CC(=O)Nc1cc(Nc2ncc(Cl)c(-c3cn4c5c(cccc35)OCC4)n2)c(OC)cc1N(C)C1CCN(C)C1 (stereo not shown) [Example 9, N-(5-((5-chloro-4-(2,3-dihydro-[1,4]oxazino[2,3,4-hi]indol-6-yl)pyrimidin-2-yl)amino)-4-methoxy-2-(methyl(1-methylpyrrolidin-3-yl)amino)phenyl)acrylamide] | < 100 | 500 to 1000 | 100 to 500 | A (IC50 value for the indicated mutant below about 100 nM)
C=CC(=O)Nc1cc(Nc2ncc(N(C)S(C)(=O)=O)c(-c3cn4c5c(cccc35)CCC4)n2)c(OC)cc1N(C)CCN(C)C [Example 59, N-(5-((4-(5,6-dihydro-4H-pyrrolo[3,2,1-ij]quinolin-1-yl)-5-(N-methylmethylsulfonamido)pyrimidin-2-yl)amino)-2-((2-(dimethylamino)ethyl)(methyl)amino)-4-methoxyphenyl)acrylamide] | > 1000 | > 1000 | > 1000 | D (IC50 value for the indicated mutant greater than about 1 μM)
C=CC(=O)Nc1cc(Nc2nccc(-c3c(N4CCC(O)C4)n4c5c(cccc35)CCC4)n2)c(OC)cc1N(C)CCN(C)C (stereo not shown) [Example 61, N-(2-((2-(dimethylamino)ethyl)(methyl)amino)-5-((4-(2-(3-hydroxypyr4rolidin-1-yl)5,6-dihydro-4H-pyrrolo[3,2,1-ij]quinolin-1-yl)pyrimidin-2-yl)amino)-4-methoxyphenyl)acrylamide] | < 100 | < 100 | < 100 | A (IC50 value for the indicated mutant below about 100 nM)
C=CC(=O)Nc1cc(Nc2ncc(C(=O)O)c(-c3cn4c5c(cccc35)CCC4)n2)c(OC)cc1N(C)CCN(C)C [Example 45, 2-((5-acrylamido-4-((2-(dimethylamino)ethyl)(methyl)amino)-2-methoxyphenyl)amino)-4-(5,6-dihydro-4H-pyrrolo[3,2,1-ij]quinolin-1-yl)pyrimidine-5-carboxylic acid] | > 1000 | > 1000 | > 1000 | D (IC50 value for the indicated mutant greater than about 1 μM)
C=CC(=O)Nc1cc(Nc2ncc(/C=C/C#N)c(-c3cn4c5c(cccc35)CCC4)n2)c(OC)cc1N(C)CCN(C)C [Example 42, (E)-N-(5-((5-(2-cyanovinyl)-4-(5,6-dihydro-4H-pyrrolo[3,2,1-ij]quinolin-1-yl)pyrimidin-2-yl)amino)-2-((2-(dimethylamino)ethyl)(methyl)amino)-4-methoxyphenyl)acrylamide] | < 100 | < 100 | < 100 | A (IC50 value for the indicated mutant below about 100 nM)
C=CC(=O)Nc1cc(Nc2ncc(OC)c(-c3cn4c5c(cccc35)CCC4)n2)c(OC)cc1N(C)CCN(C)C [Example 19, N-(5-((4-(5,6-dihydro-4H-pyrrolo[3,2,1-ij]quinolin-1-yl)-5-methoxypyrimidin-2-yl)amino)-2-((2-(dimethylamino)ethyl)(methyl)amino)-4-methoxyphenyl)acrylamide] | < 100 | 100 to 500 | < 100 | A (IC50 value for the indicated mutant below about 100 nM)
C=CC(=O)Nc1cc(Nc2ncc(C(=O)NC)c(-c3cn4c5c(cccc35)CCC4)n2)c(OC)cc1N(C)CCN(C)C [Example 54, 2-((5-acrylamido-4-((2-(dimethylamino)ethyl)(methyl)amino)-2-methoxyphenyl)amino)-4-(5,6-dihydro-4H-pyrrolo[3,2,1-ij]quinolin-1-yl)-N-methylpyrimidine-5-carboxamide] | < 100 | 100 to 500 | 100 to 500 | A (IC50 value for the indicated mutant below about 100 nM)

Further lines, with some results ahead:

IC50 [2] [nM] | IC50 [3] [nM] | IC50 [4] [nM] | SMILES | EGFR exon 19 deletion and exon 20 T790M mutation IC50 [1]
< 100 | 100 to 500 | < 100 | C=CC(=O)Nc1cc(Nc2nccc(-c3c(N4CCCC4=O)n4c5c(cccc35)CCC4)n2)c(OC)cc1N(C)CCN(C)C [Example 72, N-(2-((2-(dimethylamino)ethyl)(methyl)amino)-4-methoxy-5-((4-(2-(2-oxopyrrolidin-1-yl)-5,6-dihydro-4H-pyrrolo[3,2,1-ij]quinolin-1-yl)pyrimidin-2-yl)amino)phenyl)acrylamide] | A (IC50 value for the indicated mutant below about 100 nM)
< 100 | 100 to 500 | < 100 | C=CC(=O)Nc1cc(Nc2ncc(CO)c(-c3cn4c5c(cccc35)CCC4)n2)c(OC)cc1N(C)CCN(C)C [Example 70, N-(5-((4-(5,6-dihydro-4H-pyrrolo[3,2,1-ij]quinolin-1-yl)-5-(hydroxymethyl)pyrimidin-2-yl)amino)-2-((2-(dimethylamino)ethyl)-(methyl)amino)-4-methoxyphenyl)acrylamide] | A (IC50 value for the indicated mutant below about 100 nM)
< 100 | < 100 | < 100 | C=CC(=O)Nc1cc(Nc2ncc(-c3cn[nH]c3)c(-c3cn4c5c(cccc35)CCC4)n2)c(OC)cc1N(C)CCN(C)C [Example 85, N-(5-((4-(5,6-dihydro-4H-pyrrolo[3,2,1-ij]quinolin-1-yl)-5-(1H-pyrazol-4-yl)pyrimidin-2-yl)amino)-2-((2-(dimethylamino)ethyl)(methyl)amino)-4-methoxyphenyl)acrylamide] | A (IC50 value for the indicated mutant below about 100 nM)
< 100 | < 100 | < 100 | C=CC(=O)Nc1cc(Nc2ncc(C(=O)OCC)c(-c3cn4c5c(cccc35)CCC4)n2)c(OC)cc1N(C)CCN(C)C [Example 69, ethyl 2-((5-acrylamido-4-((2-(dimethylamino)ethyl)(methyl)amino)-2-methoxyphenyl)amino)-4-(5,6-dihydro-4H-pyrrolo[3,2,1-ij]quinolin-1-yl)pyrimidine-5-carboxylate] | A (IC50 value for the indicated mutant below about 100 nM)
< 100 | 100 to 500 | < 100 | C=CC(=O)Nc1cc(Nc2ncc(-c3nccn3C)c(-c3cn4c5c(cccc35)CCC4)n2)c(OC)cc1N(C)CCN(C)C [Example 98] | A (IC50 value for the indicated mutant below about 100 nM)
100 to 500 | > 1000 | > 1000 | C=CC(=O)Nc1cc(Nc2nccc(-c3c(-c4ncccn4)n4c5c(cccc35)CCC4)n2)c(OC)cc1N(C)CCN(C)C [Example 109] | B (IC50 value for the indicated mutant between about 100 to about 500 nM)
< 100 | 100 to 500 | < 100 | C=CC(=O)Nc1cc(Nc2nccc(-c3c(N4CCCC4)n4c5c(cccc35)CCC4)n2)c(OC)cc1N(C)CCN(C)C [Example 93] | A (IC50 value for the indicated mutant below about 100 nM)

— patent US20170166598A1, “HETEROARYL COMPOUNDS FOR KINASE INHIBITION” (ARIAD PHARMACEUTICALS, INC., priority 2014, published 2017)
